# Assay results as given in ChEMBL document CHEMBL1135961, “Synthesis and biological activity of 8beta-substituted hydrocodone indole and hydromorphone indole derivatives” (Bioorg Med Chem Lett, 2002).
# pKi: −log10 of the molar value.
# How the values were obtained:
# [1] = target: T1, Mu-type opioid receptor (Cavia porcellus, UniProt P97266); assay: Binding affinity for mu opioid receptor by displacing DAMGO was determined in [35S]-GTP gamma-S binding assay; Inactive; format: functional
# [2] = target: T2, Kappa-type opioid receptor (Cavia porcellus, UniProt P41144); assay: Binding affinity for kappa opioid receptor by displacing U-69,593 was determined in [35S]-GTP gamma-S binding assay; Inactive; format: functional
# T2 sequence (P41144 whole entry): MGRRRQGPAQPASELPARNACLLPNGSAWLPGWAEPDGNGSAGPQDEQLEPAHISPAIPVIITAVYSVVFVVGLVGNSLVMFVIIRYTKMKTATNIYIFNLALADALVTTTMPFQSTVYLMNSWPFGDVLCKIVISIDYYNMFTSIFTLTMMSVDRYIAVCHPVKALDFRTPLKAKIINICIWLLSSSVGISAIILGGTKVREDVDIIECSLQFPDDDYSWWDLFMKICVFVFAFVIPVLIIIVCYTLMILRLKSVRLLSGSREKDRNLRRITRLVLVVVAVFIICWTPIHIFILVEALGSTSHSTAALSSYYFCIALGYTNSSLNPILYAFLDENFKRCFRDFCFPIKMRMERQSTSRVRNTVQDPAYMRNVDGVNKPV
# [3] = target: Mu-type opioid receptor (Homo sapiens) (UniProt P35372); assay: Selectivity determined for mu opioid receptor to that of delta opioid receptor
# Mu-type opioid receptor (Homo sapiens), sequence (P35372 whole entry): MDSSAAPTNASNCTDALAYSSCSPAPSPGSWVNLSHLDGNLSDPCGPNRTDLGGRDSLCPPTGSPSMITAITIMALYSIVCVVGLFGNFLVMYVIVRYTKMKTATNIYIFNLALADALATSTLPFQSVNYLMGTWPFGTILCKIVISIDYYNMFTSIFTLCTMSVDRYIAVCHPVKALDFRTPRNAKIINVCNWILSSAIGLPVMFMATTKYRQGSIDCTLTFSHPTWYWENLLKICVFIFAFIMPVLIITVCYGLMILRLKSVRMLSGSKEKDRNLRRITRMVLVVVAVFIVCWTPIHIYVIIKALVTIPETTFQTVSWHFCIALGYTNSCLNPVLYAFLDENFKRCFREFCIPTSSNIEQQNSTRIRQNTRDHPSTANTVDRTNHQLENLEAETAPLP
# [4] = target: T1, Mu-type opioid receptor; assay: Binding affinity for mu opioid receptor by displacing DAMGO was determined in [35S]GTP gamma-S binding assay; format: functional
# [5] = target: Mu-type opioid receptor (Homo sapiens) (UniProt P35372); assay: Selectivity for mu to that of delta opioid receptor was determined in [35S]-GTP gamma-S binding assay
# [6] = target: T2, Kappa-type opioid receptor; assay: Binding affinity for kappa opioid receptor by displacing U-69,593 was determined in [35S]GTP gamma-S binding assay; format: functional
# T1 sequence (P97266 whole entry): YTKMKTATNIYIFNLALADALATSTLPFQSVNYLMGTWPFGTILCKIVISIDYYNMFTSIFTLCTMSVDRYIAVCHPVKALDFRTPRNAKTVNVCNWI
compound,measurement,setting,value
COc1ccc2c3c1O[C@H]1c4[nH]c5ccccc5c4CC4C(C2)N(C)CCC341 (some centres not stated),pKi,[1],< 6.22
same,pKi,[2],< 6.46
same,Ratio,[3],> 53
C[C@H]1c2c([nH]c3ccccc23)[C@@H]2Oc3c(O)ccc4c3C23CCN(CC2CC2)C(C4)C13 (some centres not stated),Ratio,[3],29
COc1ccc2c3c1O[C@H]1c4[nH]c5ccccc5c4[C@H](C)C4C(C2)N(C)CCC341 (some centres not stated),pKi,[1],< 6.22
same,pKi,[2],< 6.46
same,Ratio,[3],> 177
CN1CC[C@]23c4c5ccc(O)c4O[C@H]2c2[nH]c4ccccc4c2C[C@H]3[C@H]1C5,pKi,[4],6.69
same,Ratio,[5],14
same,pKi,[6],6.14
same,Ratio,[3],296
C=CC(C)N1CCC23c4c5ccc(O)c4O[C@H]2c2[nH]c4ccccc4c2[C@H](C)C3C1C5 (some centres not stated),Ratio,[3],120
CCCC[C@H]1c2c([nH]c3ccccc23)[C@@H]2Oc3c(OC)ccc4c3C23CCN(C)C(C4)C13 (some centres not stated),pKi,[1],< 6.22
same,pKi,[2],< 6.46
same,Ratio,[3],> 12
C[C@H]1c2c([nH]c3ccccc23)[C@@H]2Oc3c(O)ccc4c3C23CCN(C)C(C4)C13 (some centres not stated),pKi,[1],< 6.22
same,pKi,[6],6.40
same,Ratio,[3],322
CCCC[C@H]1c2c([nH]c3ccccc23)[C@@H]2Oc3c(O)ccc4c3C23CCN(C)C(C4)C13 (some centres not stated),pKi,[4],6.25
same,Ratio,[5],12
same,pKi,[6],6.57
same,Ratio,[3],50
